According to patent US20060142291A1, “Use of formaldehyde and formaldehyde-releasing compounds in a composition for controlling mycobacteria” (priority 2004, published 2006):

Experiments:
Experiment in all cases: Activity of bactericidal solutions against mycobacteria (MIC, 7H9 liquid medium, turbidity and streaking on 7H10 agar)
Assay type in all cases: cell-based
[1] = test system: M. chelonae ATCC 35725; conditions: for Activity at MIC (%) M. chelonae (28° C.): ATCC 35725, 28° C., 3 weeks incubation, % by weight
[2] = test system: M. terrae ATCC 15755; conditions: ATCC 15755, 37° C., 3 weeks incubation, % by weight
[3] = test system: M. immunogenum ATCC 700505; conditions: 3 weeks incubation, % by weight; for Activity at MIC (%) M. immunogenum (28° C.): ATCC 700505, 28° C.; for Activity at MIC (%) M. immunogenum (37° C.): ATCC 700505, 37° C.
[4] = test system: M. chelonae ATCC 19236; conditions: ATCC 19236, 37° C., 3 weeks incubation, % by weight

Row | Structure (SMILES) | Activity at MIC (%) M. chelonae (28° C.) [1] [%] | usage concentration active against M. chelonae ([1]; strain and temperature not stated) [% by weight] | Activity at MIC (%) M. terrae (37° C.) [2] [%] | Activity at MIC (%) M. immunogenum (28° C.) [3] | Activity at MIC (%) M. immunogenum (37° C.) [3] | Activity at MIC (%) M. chelonae (37° C.) [4] [%]
1 | OCCN1CN(CCO)CN(CCO)C1 [Comparison 1, 2,2′,2″-(hexahydro-1,3,5-triazine-1,3,5-triyl)triethanol] | 0.3 | 0.3 | 0.3 | ≦0.075% | ≦0.075% | 0.3
2 | CCCCCCCCn1sccc1=O [Comparison 2, 2-octyl-3(2H)-isothiazol-3-one] | >0.3 | – | >0.3 | >0.3% | >0.3% | >0.3
